US20240139211A1, “METHODS AND COMPOSITIONS FOR TREATING AMYOTROPHIC LATERAL SCLEROSIS” (Amylyx Pharmaceuticals, Inc., priority 2022, published 2024)
“And” between values parts separate entries of the source, which are not always exact repeats. Identical values can stand only once. Like-named read-outs stand apart in the source and are kept apart here.

Columns and labels:
P-gp = P-gp (Homo sapiens, UniProt P08183); test: in vitro
CYP1A2 mRNA = test: in vitro; settings: human
hrCYP1A2 = target: T1, hrCYP1A2 (Homo sapiens, UniProt P05177); test: CYP reaction phenotyping with hrCYP1A2 (% remaining); assay type: in vitro ADME; settings: for % Remaining of TA: hrCYP1A2 20 pmol CYP/mL, 5 μM TA, PB and TUDCA co-incubated
T1 sequence (P05177 1-516): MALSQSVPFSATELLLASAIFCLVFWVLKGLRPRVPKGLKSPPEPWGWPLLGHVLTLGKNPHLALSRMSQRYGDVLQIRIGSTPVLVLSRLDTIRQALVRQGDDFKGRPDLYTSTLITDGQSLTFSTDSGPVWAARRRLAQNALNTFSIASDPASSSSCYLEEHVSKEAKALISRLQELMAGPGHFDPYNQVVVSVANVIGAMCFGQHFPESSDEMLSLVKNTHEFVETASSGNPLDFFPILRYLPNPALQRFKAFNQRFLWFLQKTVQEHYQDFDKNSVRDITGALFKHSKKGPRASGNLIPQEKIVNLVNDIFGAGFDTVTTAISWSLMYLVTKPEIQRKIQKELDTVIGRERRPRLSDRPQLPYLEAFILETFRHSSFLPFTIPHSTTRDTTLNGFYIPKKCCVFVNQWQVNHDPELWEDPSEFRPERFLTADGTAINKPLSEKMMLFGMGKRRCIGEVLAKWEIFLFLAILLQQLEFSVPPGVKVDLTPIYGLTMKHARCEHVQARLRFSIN

hrCYP2B6 = target: T2, hrCYP2B6 (Homo sapiens, UniProt P20813); test: CYP reaction phenotyping with hrCYP2B6 (% remaining); assay type: in vitro ADME; settings: for % Remaining of TA: hrCYP2B6 20 pmol CYP/mL, 5 μM TA, PB and TUDCA co-incubated
T2 sequence (P20813 1-491): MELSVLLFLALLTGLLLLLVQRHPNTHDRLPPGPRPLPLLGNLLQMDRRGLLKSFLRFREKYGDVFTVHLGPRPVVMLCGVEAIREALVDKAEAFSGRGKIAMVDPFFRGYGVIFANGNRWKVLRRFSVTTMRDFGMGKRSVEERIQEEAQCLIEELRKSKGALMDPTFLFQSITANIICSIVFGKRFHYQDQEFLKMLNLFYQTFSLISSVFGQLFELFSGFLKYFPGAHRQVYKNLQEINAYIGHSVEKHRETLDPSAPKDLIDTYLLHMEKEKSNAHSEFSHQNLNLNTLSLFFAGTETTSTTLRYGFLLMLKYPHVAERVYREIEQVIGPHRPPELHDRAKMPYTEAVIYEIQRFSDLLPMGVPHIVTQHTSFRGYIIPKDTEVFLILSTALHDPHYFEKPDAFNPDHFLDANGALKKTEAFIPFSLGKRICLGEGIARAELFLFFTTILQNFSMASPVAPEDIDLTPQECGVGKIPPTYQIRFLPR

hrCYP2C19 = hrCYP2C19 (Homo sapiens, UniProt P33261); test: CYP reaction phenotyping with hrCYP2C19 (% remaining); assay type: in vitro ADME; settings: for % Remaining of TA: hrCYP2C19 20 pmol CYP/mL, 5 μM TA, PB and TUDCA co-incubated
Chain of hrCYP2C19 (P33261 whole entry): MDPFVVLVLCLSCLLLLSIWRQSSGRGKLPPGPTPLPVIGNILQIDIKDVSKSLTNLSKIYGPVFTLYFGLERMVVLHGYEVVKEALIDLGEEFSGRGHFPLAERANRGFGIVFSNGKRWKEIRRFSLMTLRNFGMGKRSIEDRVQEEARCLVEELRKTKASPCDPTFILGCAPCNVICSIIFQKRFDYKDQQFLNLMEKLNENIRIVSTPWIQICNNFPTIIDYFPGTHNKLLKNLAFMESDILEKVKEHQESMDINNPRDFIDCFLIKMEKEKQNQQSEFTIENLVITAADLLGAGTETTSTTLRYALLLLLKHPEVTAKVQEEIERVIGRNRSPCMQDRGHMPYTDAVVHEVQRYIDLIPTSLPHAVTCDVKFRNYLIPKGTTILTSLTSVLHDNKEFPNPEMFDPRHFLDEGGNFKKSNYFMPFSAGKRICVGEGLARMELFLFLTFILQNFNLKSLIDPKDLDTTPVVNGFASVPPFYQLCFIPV

hrCYP3A4 = hrCYP3A4 (Homo sapiens, UniProt P08684); test: CYP reaction phenotyping with hrCYP3A4 (% remaining); assay type: in vitro ADME; settings: for % Remaining of TA: hrCYP3A4 20 pmol CYP/mL, 5 μM TA, PB and TUDCA co-incubated
Chain of hrCYP3A4 (P08684 whole entry): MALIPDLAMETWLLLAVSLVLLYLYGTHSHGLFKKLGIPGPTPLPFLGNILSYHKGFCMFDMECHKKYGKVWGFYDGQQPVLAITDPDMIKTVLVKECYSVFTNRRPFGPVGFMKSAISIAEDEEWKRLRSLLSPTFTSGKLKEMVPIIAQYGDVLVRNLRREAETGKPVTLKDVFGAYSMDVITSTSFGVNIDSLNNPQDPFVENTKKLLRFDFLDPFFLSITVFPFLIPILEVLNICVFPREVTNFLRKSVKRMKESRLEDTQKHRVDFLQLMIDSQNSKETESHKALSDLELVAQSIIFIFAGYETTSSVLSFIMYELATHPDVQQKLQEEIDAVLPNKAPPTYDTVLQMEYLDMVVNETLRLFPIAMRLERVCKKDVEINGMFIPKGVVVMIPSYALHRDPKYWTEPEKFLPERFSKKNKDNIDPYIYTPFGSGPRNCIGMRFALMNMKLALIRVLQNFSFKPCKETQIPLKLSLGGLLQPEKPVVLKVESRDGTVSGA

[1] = Rat drug-drug interaction study TDF + AMX0035: urine recovery; assay type: in vivo
Procedure: Total urine recovery data for Tenofovir, TDF, and PB was calculated for the 24 hour collection period on Days 1 and 5. […] The reported urine recovery data included amount recovered (ng) and percent recovered (%) for […]. Individual and mean Tenofovir, TDF, and PB urine recovery data were presented with SD, reported to three significant figures, and CV %, reported to one decimal place.

OAT1 = target: T3, OAT1 (Homo sapiens, UniProt Q4U2R8); test: in vitro
T3 sequence (Q4U2R8 1-563): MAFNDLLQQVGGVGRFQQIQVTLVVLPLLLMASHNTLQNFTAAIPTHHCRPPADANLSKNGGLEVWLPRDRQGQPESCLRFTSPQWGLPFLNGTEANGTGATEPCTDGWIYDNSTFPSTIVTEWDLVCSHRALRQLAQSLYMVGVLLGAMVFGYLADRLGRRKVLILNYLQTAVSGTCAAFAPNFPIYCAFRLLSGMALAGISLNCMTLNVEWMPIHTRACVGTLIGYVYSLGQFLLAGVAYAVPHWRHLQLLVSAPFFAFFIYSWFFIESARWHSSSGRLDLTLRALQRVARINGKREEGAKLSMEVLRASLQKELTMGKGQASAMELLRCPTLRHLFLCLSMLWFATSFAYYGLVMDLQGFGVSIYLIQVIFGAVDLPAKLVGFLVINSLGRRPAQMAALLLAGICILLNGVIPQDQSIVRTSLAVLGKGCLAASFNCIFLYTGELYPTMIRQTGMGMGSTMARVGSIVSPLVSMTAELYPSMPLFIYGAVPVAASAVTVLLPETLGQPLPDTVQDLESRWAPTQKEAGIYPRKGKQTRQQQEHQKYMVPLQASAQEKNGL

[2] = Solubility assessment in HBSSg_7.4 and HBSSg_8.5; settings: for Measured Concentration / Percent of the Nominal Concentration: replicates 1-3
[3] = HBSSg_7.4, target 8005 μM TUDCA, 64447 μM PB
[4] = HBSSg_8.5, target 810 μM TUDCA, 73927 μM PB

Chain of P-gp (P08183 whole entry): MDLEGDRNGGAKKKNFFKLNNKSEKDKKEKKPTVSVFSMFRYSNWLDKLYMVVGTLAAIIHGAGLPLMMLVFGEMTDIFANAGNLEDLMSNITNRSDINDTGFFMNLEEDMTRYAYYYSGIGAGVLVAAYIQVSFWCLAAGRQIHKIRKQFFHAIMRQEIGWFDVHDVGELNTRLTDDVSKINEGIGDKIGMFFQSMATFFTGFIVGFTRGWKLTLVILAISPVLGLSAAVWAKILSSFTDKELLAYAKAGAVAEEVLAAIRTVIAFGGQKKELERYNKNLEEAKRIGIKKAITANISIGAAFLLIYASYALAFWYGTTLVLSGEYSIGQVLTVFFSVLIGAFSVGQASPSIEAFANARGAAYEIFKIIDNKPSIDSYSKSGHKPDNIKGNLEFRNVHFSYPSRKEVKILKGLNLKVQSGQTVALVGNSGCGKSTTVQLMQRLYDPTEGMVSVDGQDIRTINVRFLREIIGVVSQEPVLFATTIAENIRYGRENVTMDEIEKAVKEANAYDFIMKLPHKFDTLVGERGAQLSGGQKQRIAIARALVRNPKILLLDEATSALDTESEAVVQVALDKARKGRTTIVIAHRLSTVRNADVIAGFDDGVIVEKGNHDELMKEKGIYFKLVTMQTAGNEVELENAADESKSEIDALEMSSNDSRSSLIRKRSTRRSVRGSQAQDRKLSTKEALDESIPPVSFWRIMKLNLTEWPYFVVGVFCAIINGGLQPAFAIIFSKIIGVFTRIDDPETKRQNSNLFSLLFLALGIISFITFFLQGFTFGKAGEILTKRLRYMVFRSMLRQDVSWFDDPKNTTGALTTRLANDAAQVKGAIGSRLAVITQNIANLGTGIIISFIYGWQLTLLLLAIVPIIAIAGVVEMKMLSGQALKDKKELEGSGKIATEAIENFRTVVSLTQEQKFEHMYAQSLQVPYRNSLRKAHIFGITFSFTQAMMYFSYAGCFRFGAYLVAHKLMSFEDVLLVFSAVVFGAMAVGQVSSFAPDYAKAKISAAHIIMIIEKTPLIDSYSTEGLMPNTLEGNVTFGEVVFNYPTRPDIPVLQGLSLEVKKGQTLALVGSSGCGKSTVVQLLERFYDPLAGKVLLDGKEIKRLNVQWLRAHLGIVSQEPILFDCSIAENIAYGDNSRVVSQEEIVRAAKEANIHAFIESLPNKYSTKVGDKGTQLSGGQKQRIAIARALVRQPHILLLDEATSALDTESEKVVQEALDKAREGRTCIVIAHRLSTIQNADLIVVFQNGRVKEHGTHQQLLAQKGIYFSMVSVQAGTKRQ

`C[C@H](CCC(=O)NCC(=O)O)[C@H]1CC[C@H]2[C@@H]3[C@@H](O)C[C@@H]4C[C@H](O)CC[C@]4(C)[C@H]3CC[C@]12C` [Glycoursodeoxycholic acid, glycoursodeoxycholic acid] showed a potency estimated from few doses (P-gp; Caco-2 cells, probe 3H-digoxin) of less than 10 µM, an EC50 at 72 h (CYP1A2 mRNA; hepatocyte cultures) of 1.88 µM and a fold induction at 72 h (CYP1A2 mRNA; hepatocyte cultures) of 12.2.
With `O=C(O)CCCc1ccccc1` [PB, sodium phenylbutyrate] the “% remaining after 60 minutes” value (hrCYP1A2; human, 1 h, 5 µM, pH 7.4) was “greater than 90%”, the “% remaining after 60 minutes” value (hrCYP2B6; human, 1 h, 5 µM, pH 7.4) was “greater than 90%” and the “% remaining after 60 minutes” value (hrCYP2C19; human, 1 h, 5 µM, pH 7.4) was “greater than 90%”. The “% remaining after 60 minutes” value (hrCYP3A4; human, 1 h, 5 µM, pH 7.4) was “greater than 90%”, the Urine concentrations ([1]; male, Sprague-Dawley, rat, in vivo) was “Urine concentrations for PB analysis in all animals on Day 1, for TUDCA analysis in all animals on Days 1 and 5, and for TDF analysis in two animals on Day 1 and one animal on Day 5 were BLQ (<20 mg/mL) so no recovery data was calculated” and the potency estimated from few doses (OAT1) was less than 25 µM. The “Measured Concentration” value [2, 3] was 52000 µM and 59300 µM and 52800 µM, the “Percent of the Nominal Concentration” value [2, 3] was 80.7% and 92.0% and 81.9% and the “Measured Concentration” value [2, 4] was 62200 µM and 53200 µM and 61100 µM. For the same compound, the “Percent of the Nominal Concentration” value [2, 4] was 84.1% and 72.0% and 82.6%.
In the case of `O=C(O)Cc1ccccc1` [Phenylacetic acid, phenylacetic acid], the potency estimated from few doses (OAT1) is reported as less than 750 µM, the potency estimated from few doses (P-gp) is reported as greater than 7500 µM and the EC50 at 72 h (CYP1A2 mRNA) is reported as 8.18 µM.
With tauroursodeoxycholic acid [TUDCA] the “% Remaining of TA” value (hrCYP1A2; 0 min) was 100%, the “% Remaining of TA” value (hrCYP1A2; 5 min) was 98.0% and the “% Remaining of TA” value (hrCYP1A2; 10 min) was 101%. For the same compound, the “% Remaining of TA” value (hrCYP1A2; 20 min) was 99.9%, the “% Remaining of TA” value (hrCYP1A2; 30 min) was 103% and the “% Remaining of TA” value (hrCYP1A2; 60 min) was 90.5%. The “% Remaining of TA” value (hrCYP2B6; 0 min) was 100%, the “% Remaining of TA” value (hrCYP2B6; 5 min) was 97.6% and the “% Remaining of TA” value (hrCYP2B6; 10 min) was 97.0%. For the same compound, the “% Remaining of TA” value (hrCYP2B6; 20 min) was 99.3%, the “% Remaining of TA” value (hrCYP2B6; 30 min) was 99.7% and the “% Remaining of TA” value (hrCYP2B6; 60 min) was 101%. The “% Remaining of TA” value (hrCYP2C19; 0 min) was 100%, the “% Remaining of TA” value (hrCYP2C19; 5 min) was 96.1% and the “% Remaining of TA” value (hrCYP2C19; 10 min) was 98.7%. The “% Remaining of TA” value (hrCYP2C19; 20 min) was 94.8%, the “% Remaining of TA” value (hrCYP2C19; 30 min) was 95.1% and the “% Remaining of TA” value (hrCYP3A4; 0 min) was 100%. For the same compound, the “% Remaining of TA” value (hrCYP3A4; 5 min) was 97.1%, the “% Remaining of TA” value (hrCYP3A4; 10 min) was 92.1% and the “% Remaining of TA” value (hrCYP3A4; 20 min) was 91.4%. The “% Remaining of TA” value (hrCYP3A4; 30 min) was 90.9%, the “% Remaining of TA” value (hrCYP3A4; 60 min) was 91.1% and the Detection in urine ([1]; Days 1 and 5) was “not detected in any urine samples”. For the same compound, the “Soluble up to target concentration” value ([2]; HBSSg_7.4, 37° C. overnight) was no less than 8005 µM, the “Measured Concentration” value [2, 3] was 6710 µM and 6950 µM and 6770 µM and the “Percent of the Nominal Concentration” value [2, 3] was 83.8% and 86.8% and 84.6%. For the same compound, the “Soluble up to target concentration” value ([2]; HBSSg_8.5, 37° C. overnight) was no less than 810 µM, the “Measured Concentration” value [2, 4] was 719 μM and 704 μM (2×) and the “Percent of the Nominal Concentration” value [2, 4] was 88.8% and 86.9% (2×).
